Measurements reported in patent US20230024096A1, “BIFUNCTIONAL COMPOUNDS FOR THE TREATMENT OF CANCER” (Hoffmann-La Roche Inc., priority 2019, published 2023).

Biological target: T1, SMARCA2 (Homo sapiens, UniProt P51531)
T1 construct: endogenous in cells; host or cells: HT1080 (CRISPR HiBiT knock-in clone, generated in house)
Test: SMARCA2 HiBiT degradation assay (cellular)
Type: cell-based
Conditions: table head names A549; for DC50: HiBiT-tagged SMARCA2, luminescence read-out, read-out: HiBit A549 SMARCA2 IP (nM) 6 h; for Emax: A549, 6 h incubation

[1] = Emax = amount of residual protein remaining in the cell following compound treatment

T1 sequence (P51531 whole entry): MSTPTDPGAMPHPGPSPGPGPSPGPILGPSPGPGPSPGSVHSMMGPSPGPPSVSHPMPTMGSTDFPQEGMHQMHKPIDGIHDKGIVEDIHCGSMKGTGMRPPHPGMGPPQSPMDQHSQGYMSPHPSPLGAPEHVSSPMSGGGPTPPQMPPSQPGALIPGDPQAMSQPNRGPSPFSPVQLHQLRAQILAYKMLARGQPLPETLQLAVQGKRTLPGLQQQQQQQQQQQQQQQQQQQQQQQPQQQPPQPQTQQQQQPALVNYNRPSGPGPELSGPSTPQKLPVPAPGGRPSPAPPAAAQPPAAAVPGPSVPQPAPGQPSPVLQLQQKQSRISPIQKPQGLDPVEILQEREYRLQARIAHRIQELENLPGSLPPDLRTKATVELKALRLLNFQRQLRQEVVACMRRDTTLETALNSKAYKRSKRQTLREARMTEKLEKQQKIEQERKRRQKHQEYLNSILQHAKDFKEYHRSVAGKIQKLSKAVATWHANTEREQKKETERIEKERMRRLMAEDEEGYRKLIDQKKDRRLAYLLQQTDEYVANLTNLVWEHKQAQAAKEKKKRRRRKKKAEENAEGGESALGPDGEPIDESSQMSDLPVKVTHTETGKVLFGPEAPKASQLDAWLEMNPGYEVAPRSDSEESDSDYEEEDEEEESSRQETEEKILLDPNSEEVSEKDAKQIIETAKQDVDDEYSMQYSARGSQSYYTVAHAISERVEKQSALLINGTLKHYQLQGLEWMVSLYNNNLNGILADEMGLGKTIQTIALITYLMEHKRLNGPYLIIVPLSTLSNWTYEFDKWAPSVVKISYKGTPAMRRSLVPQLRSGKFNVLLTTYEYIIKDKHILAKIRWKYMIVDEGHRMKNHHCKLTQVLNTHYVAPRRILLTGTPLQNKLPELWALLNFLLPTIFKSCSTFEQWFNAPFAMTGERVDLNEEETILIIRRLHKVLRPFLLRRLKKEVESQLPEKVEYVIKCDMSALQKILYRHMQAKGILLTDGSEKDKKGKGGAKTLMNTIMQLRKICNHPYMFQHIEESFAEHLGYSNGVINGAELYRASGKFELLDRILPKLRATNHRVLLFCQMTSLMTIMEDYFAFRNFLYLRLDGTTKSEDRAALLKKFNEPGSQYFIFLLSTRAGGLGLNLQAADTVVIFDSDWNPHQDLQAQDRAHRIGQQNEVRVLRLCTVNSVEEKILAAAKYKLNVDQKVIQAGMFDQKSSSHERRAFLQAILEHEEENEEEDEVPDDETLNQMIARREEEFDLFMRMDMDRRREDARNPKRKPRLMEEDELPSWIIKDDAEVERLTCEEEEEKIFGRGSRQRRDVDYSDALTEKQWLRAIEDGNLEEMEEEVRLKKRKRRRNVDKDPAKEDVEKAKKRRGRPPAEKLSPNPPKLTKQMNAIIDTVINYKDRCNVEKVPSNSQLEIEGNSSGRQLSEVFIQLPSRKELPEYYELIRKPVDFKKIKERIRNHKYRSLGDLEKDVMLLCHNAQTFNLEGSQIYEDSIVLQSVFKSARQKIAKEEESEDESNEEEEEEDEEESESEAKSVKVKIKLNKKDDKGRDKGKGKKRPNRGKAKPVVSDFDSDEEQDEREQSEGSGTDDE

Row | Structure (SMILES) | DC50 (6 h incubation) [nM] | Emax [1] [%] | HiBit A549 SMARCA2 Emax (%) 6 h (6 h incubation, Emax = amount of residual protein remaining in the cell following compound treatment) [%]
1 | Nc1nnc(-c2ccccc2O)cc1N1CCC(C(=O)NCC2CCN(C(=O)CC3CCN(c4ccc5c(c4)C(=O)N(C4CCC(=O)NC4=O)C5=O)CC3)CC2)(c2ccccc2)CC1 (stereo not drawn) [Example 103, 1-(3-amino-6-(2-hydroxyphenyl)pyridazin-4-yl)-N-((1-(2-(1-(2-(2,6-dioxopiperidin-3-yl)-1,3-dioxoisoindolin-5-yl)piperidin-4-yl)acetyl)piperidin-4-yl)methyl)-4-phenylpiperidine-4-carboxamide] | 104 | 45 | 
2 | Nc1nnc(-c2ccccc2O)cc1N1CC2CCC(C1)N2c1ccc(C(F)(F)F)c(C(=O)N2CCN(C(=O)C3CCN(c4ccc5c(c4)C(=O)N(C4CCC(=O)NC4=O)C5=O)CC3)CC2)c1 (racemic) [Example 107, rac-5-[4-[4-[5-[3-[3-amino-6-(2-hydroxyphenyl)pyridazin-4-yl]-3,8-diazabicyclo[3.2.1]octan-8-yl]-2-(trifluoromethyl)benzoyl]piperazine-1-carbonyl]-1-piperidyl]-2-(2,6-dioxo-3-piperidyl)isoindoline-1,3-dione] | 193 | 51 | 
3 | Nc1nnc(-c2ccccc2O)cc1N1CCC(C(=O)NCC2CCN(C(=O)C3CCN(c4ccc5c(c4)C(=O)N(C4CCC(=O)NC4=O)C5=O)CC3)CC2)(c2ccccc2)CC1 (stereo not drawn) [Example 86, 1-[3-amino-6-(2-hydroxyphenyl)pyridazin-4-yl]-N-[[1-[1-[2-(2,6-dioxo-3-piperidyl)-1,3-dioxo-isoindolin-5-yl]piperidine-4-carbonyl]-4-piperidyl]methyl]-4-phenyl-piperidine-4-carboxamide] | 59 | 37 | 
4 | Nc1nnc(-c2ccccc2O)cc1N1CC2CCC(C1)N2c1cccc(OCCN2CCN(C(=O)CCC(=O)N3CCN(Cc4cccc5c4C(=O)N(C4CCC(=O)NC4=O)C5=O)CC3)CC2)c1 (racemic) [Example 22, rac-4-[[4-[4-[4-[2-[3-[3-[3-amino-6-(2-hydroxyphenyl)pyridazin-4-yl]-3,8-diazabicyclo[3.2.1]octan-8-yl]phenoxy]ethyl]piperazin-1-yl]-4-oxo-butanoyl]piperazin-1-yl]methyl]-2-(2,6-dioxo-3-piperidyl)isoindoline-1,3-dione] | 212 | 28 | 
5 | Nc1nnc(-c2ccccc2O)cc1N1CCC(C(=O)N2CC3(CCN(CCOC4CCN(c5ccc6c(c5)C(=O)N(C5CCC(=O)NC5=O)C6=O)CC4)C3)C2)(c2ccccc2)CC1 (stereo not drawn) [Example 192, 5-[4-[2-[2-[1-[3-amino-6-(2-hydroxyphenyl)pyridazin-4-yl]-4-phenyl-piperidine-4-carbonyl]-2,7-diazaspiro[3.4]octan-7-yl]ethoxy]-1-piperidyl]-2-(2,6-dioxo-3-piperidyl)isoindoline-1,3-dione] | 57 | 34 | 
6 | Nc1nnc(-c2ccccc2O)cc1N1CC2CCC(C1)N2c1cccc(OCCN2CCN(C(=O)CN3CCC(c4ccc(NC5CCC(=O)NC5=O)cc4)CC3)CC2)c1 (racemic) [Example 79, rac-3-[4-[1-[2-[4-[2-[3-[3-[3-amino-6-(2-hydroxyphenyl)pyridazin-4-yl]-3,8-diazabicyclo[3.2.1]octan-8-yl]phenoxy]ethyl]piperazin-1-yl]-2-oxo-ethyl]-4-piperidyl]anilino]piperidine-2,6-dione] | 19 | 46 | 
7 | Nc1nnc(-c2ccccc2O)cc1N1CCC(OCC(=O)NC2CCN(C(=O)C3CCN(c4ccc5c(c4)C(=O)N(C4CCC(=O)NC4=O)C5=O)CC3)CC2)(c2ccccc2)CC1 (stereo not drawn) [Example 196, 2-[[1-[3-amino-6-(2-hydroxyphenyl)pyridazin-4-yl]-4-phenyl-4-piperidyl]oxy]-N-[1-[1-[2-(2,6-dioxo-3-piperidyl)-1,3-dioxo-isoindolin-5-yl]piperidine-4-carbonyl]-4-piperidyl]acetamide] | 51 | 65 | 
8 | Nc1nnc(-c2ccccc2O)cc1N1CCN(c2cccc(OCCN3CCN(C(=O)CCCCCCNc4cccc5c4C(=O)N(C4CCC(=O)NC4=O)C5=O)CC3)c2)C2(CC2)C1 (stereo not drawn) [Example 5, 4-[[7-[4-[2-[3-[7-[3-amino-6-(2-hydroxyphenyl)pyridazin-4-yl]-4,7-diazaspiro[2.5]octan-4-yl]phenoxy]ethyl]piperazin-1-yl]-7-oxo-heptyl]amino]-2-(2,6-dioxo-3-piperidyl)isoindoline-1,3-dione] | 66 | 60 | 
9 | Nc1nnc(-c2ccccc2O)cc1N1CC2CCC(C1)N2c1cccc(OCCN2CCN(C(=O)CCC3CCN(c4ccc5c(c4)C(=O)N(C4CCC(=O)NC4=O)C5=O)CC3)CC2)c1 (racemic) [Example 14, rac-5-[4-[3-[4-[2-[3-[3-[3-amino-6-(2-hydroxyphenyl)pyridazin-4-yl]-3,8-diazabicyclo[3.2.1]octan-8-yl]phenoxy]ethyl]piperazin-1-yl]-3-oxo-propyl]-1-piperidyl]-2-(2,6-dioxo-3-piperidyl)isoindoline-1,3-dione] | 31 | 45 | 
10 | Nc1nnc(-c2ccccc2O)cc1N1CC2CCC(C1)N2c1cccc(OCCN2CCN(C(=O)CNC(=O)C3CCN(c4ccc5c(c4)C(=O)N(C4CCC(=O)NC4=O)C5=O)CC3)CC2)c1 (racemic) [Example 19, rac-N-[2-[4-[2-[3-[3-[3-amino-6-(2-hydroxyphenyl)pyridazin-4-yl]-3,8-diazabicyclo[3.2.1]octan-8-yl]phenoxy]ethyl]piperazin-1-yl]-2-oxo-ethyl]-1-[2-(2,6-dioxo-3-piperidyl)-1,3-dioxo-isoindolin-5-yl]piperidine-4-carboxamide] | 64 |  | 34
11 | Nc1nnc(-c2ccccc2O)cc1N1CC(Oc2cccc(N3CCN(C(=O)CCCCCCCCCNc4cccc5c4C(=O)N(C4CCC(=O)NC4=O)C5=O)CC3)c2)C1 (stereo not drawn) [Example 39, 4-[[10-[4-[3-[1-[3-amino-6-(2-hydroxyphenyl)pyridazin-4-yl]azetidin-3-yl]oxyphenyl]piperazin-1-yl]-10-oxo-decyl]amino]-2-(2,6-dioxo-3-piperidyl)isoindoline-1,3-dione] | 718 | 63 | 
12 | Nc1nnc(-c2ccccc2O)cc1N1CC2CCC(C1)N2c1cccc(CN2CCN(CCCOC3CCN(c4ccc5c(c4)C(=O)N(C4CCC(=O)NC4=O)C5=O)CC3)CC2)c1 (racemic) [Example 56, rac-5-[4-[3-[4-[[3-[3-[3-Amino-6-(2-hydroxyphenyl)pyridazin-4-yl]-3,8-diazabicyclo[3.2.1]octan-8-yl]phenyl]methyl]piperazin-1-yl]propoxy]-1-piperidyl]-2-(2,6-dioxo-3-piperidyl)isoindoline-1,3-dione] | 10 | 36 | 
13 | Nc1nnc(-c2ccccc2O)cc1N1CC2CCC(C1)N2c1cccc(OCCN2CCN(C(=O)C3CC4(C3)CN(c3ccc5c(c3)C(=O)N(C3CCC(=O)NC3=O)C5=O)C4)CC2)c1 (racemic) [Example 61, rac-5-[6-[4-[2-[3-[3-[3-amino-6-(2-hydroxyphenyl)pyridazin-4-yl]-3,8-diazabicyclo[3.2.1]octan-8-yl]phenoxy]ethyl]piperazine-1-carbonyl]-2-azaspiro[3.3]heptan-2-yl]-2-(2,6-dioxo-3-piperidyl)isoindoline-1,3-dione] | 100 | 53 | 
14 | Nc1nnc(-c2ccccc2O)cc1N1CCN(c2ccccc2)C(C(=O)NC2CCN(C(=O)C3CCN(c4ccc5c(c4)C(=O)N(C4CCC(=O)NC4=O)C5=O)CC3)CC2)C1 (stereo not drawn) [Example 87, 4-(3-amino-6-(2-hydroxyphenyl)pyridazin-4-yl)-N-(1-(1-(2-(2,6-dioxopiperidin-3-yl)-1,3-dioxoisoindolin-5-yl)piperidine-4-carbonyl)piperidin-4-yl)-1-phenylpiperazine-2-carboxamide] | 81 | 48 | 
15 | Nc1nnc(-c2ccccc2O)cc1N1CCC(C(=O)N2CC3(CCN(C(=O)COc4ccc5c(c4)C(=O)N(C4CCC(=O)NC4=O)C5=O)CC3)C2)(c2ccccc2)CC1 (stereo not drawn) [Example 162, 5-(2-(2-(1-(3-amino-6-(2-hydroxyphenyl)pyridazin-4-yl)-4-phenylpiperidine-4-carbonyl)-2,7-diazaspiro[3.5]nonan-7-yl)-2-oxoethoxy)-2-(2,6-dioxopiperidin-3-yl)isoindoline-1,3-dione] | 299 | 57 | 
16 | Nc1nnc(-c2ccccc2O)cc1N1CCC(C(=O)N2CC3(CCN(CC4CCN(c5ccc6c(c5)C(=O)N(C5CCC(=O)NC5=O)C6=O)CC4)C3)C2)(c2ccccc2)CC1 (stereo not drawn) [Example 190, 5-(4-((2-(1-(3-amino-6-(2-hydroxyphenyl)pyridazin-4-yl)-4-phenylpiperidine-4-carbonyl)-2,6-diazaspiro[3.4]octan-6-yl)methyl)piperidin-1-yl)-2-(2,6-dioxopiperidin-3-yl)isoindoline-1,3-dione] | 22 | 29 | 
17 | Nc1nnc(-c2ccccc2O)cc1N1CC2CCC(C1)N2c1cccc(OCCN2CCN(C(=O)CN3CCC(c4ccc(OC5CCC(=O)NC5=O)cn4)CC3)CC2)c1 (stereo not drawn) [Example 198, 3-[[6-[1-[2-[4-[2-[3-[3-[3-amino-6-(2-hydroxyphenyl)pyridazin-4-yl]-3,8-diazabicyclo[3.2.1]octan-8-yl]phenoxy]ethyl]piperazin-1-yl]-2-oxo-ethyl]-4-piperidyl]-3-pyridyl]oxy]piperidine-2,6-dione] | 277 | 68 | 
18 | Nc1nnc(-c2ccccc2O)cc1N1CC2CCC(C1)N2c1cccc(OCCN2CCN(C(=O)N3CCN(c4ccc(NC5CCC(=O)NC5=O)cc4)CC3)CC2)c1 (racemic) [Example 81, rac-3-[4-[4-[4-[2-[3-[3-[3-amino-6-(2-hydroxyphenyl)pyridazin-4-yl]-3,8-diazabicyclo[3.2.1]octan-8-yl]phenoxy]ethyl]piperazine-1-carbonyl]piperazin-1-yl]anilino]piperidine-2,6-dione] | 16 | 56 | 
